According to patent publication US11559538B2, “Substituted 1,2-oxaborolan-2-ols as PDE4 inhibitors” (Pfizer Inc., priority 2018, dated 2023):
Where two headings read alike, the source gives them in different places.

Experiments:
IL-13 = experiment: Cytokine assay: IL-13 release from PHA-L stimulated human PBMCs; type: cell-based; conditions: read-out: IL13 IC50
In short: (§1)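 Human peripheral blood mononuclear cells are pre-exposed to test compound, then activated with the T-cell mitogen PHA-L (3.5 μg/mL in the well). After two days of culture at 37° C, supernatant cytokine levels are quantified by HTRF. Potency is expressed as IC50.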

IFNγ = experiment: Cytokine assay: IFNγ release from PHA-L stimulated human PBMCs; type: cell-based
In short: as §1

IL-4 = experiment: Cytokine assay: IL-4 release from PHA-L stimulated human PBMCs; type: cell-based; conditions: read-out: IL4 IC50
In short: as §1

[1] = target: PDE4B (aa 152-484, Uniprot ID Q07343) (Homo sapiens (Human), UniProt Q07343); experiment: PDE4 SPA assay (scintillation proximity assay); type: biochemical; conditions: read-out: PDE4B2 IC50
Sequence of PDE4B (aa 152-484, Uniprot ID Q07343) (Q07343 324-656): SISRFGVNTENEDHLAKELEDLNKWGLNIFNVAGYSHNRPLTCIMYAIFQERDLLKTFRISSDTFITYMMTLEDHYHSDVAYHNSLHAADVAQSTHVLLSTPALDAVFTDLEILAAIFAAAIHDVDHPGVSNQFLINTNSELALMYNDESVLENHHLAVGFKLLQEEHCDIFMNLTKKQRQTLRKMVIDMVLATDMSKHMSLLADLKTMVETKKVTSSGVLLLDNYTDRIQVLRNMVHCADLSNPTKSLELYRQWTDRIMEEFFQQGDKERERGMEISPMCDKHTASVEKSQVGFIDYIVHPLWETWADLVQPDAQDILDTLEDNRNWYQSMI
In short: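 Scintillation proximity read-out after a 30 min room-temperature reaction of ~81.6 pM PDE4B catalytic fragment (aa 152-484) with 1 μM tritiated/unlabeled cAMP, pH 7.5 Tris buffer with MgCl2 and Brij 35. Compound given ~10 min beforehand, 4-fold dilutions, ~2% DMSO; IC50 from four-parameter logistic curve.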

SMILES	IC50 (IL-13; Homo sapiens, PBMC)	IC50 (IFNγ; Homo sapiens, PBMC)	IC50 (IL-4; Homo sapiens, PBMC)	IC50 [1]	IC50 (IL-13)	IC50 (IFNγ)	IC50 (IL-4)
CCCOc1c(OC)ccc(-c2cncc(C3COB(O)C3)c2)c1OC (stereo not shown) [Example 167, 4-(5-(2,4-dimethoxy-3-propoxphenyl)pyridin-3-yl)-1,2-oxaborolan-2-ol]	2790 nM	1.13 nM	1.37 nM	1.98 nM			
COc1ccc(-c2cncc(C3COB(O)C3)c2)cc1OC(C)C (stereo not shown) [Example 35, 4-(5-(3-isopropoxy-4-methoxyphenyl)pyridin-3-yl)-1,2-oxaborolan-2-ol]	230 nM	1.55 nM	6.98 nM	1.17 nM			
COc1ccc(-c2cccc(C3COB(O)C3)c2)cc1OC1CCC1 (stereo not shown) [Example 184, 4-(3′-cyclobutoxy-4′-methoxy-[1,1′-biphenyl]-3-yl)-1,2-oxaborolan-2-ol]	1400 nM	4.48 nM	79.2 nM	0.8 nM			
CCOc1cc(-c2cncc(C3COB(O)C3)c2C(F)F)ccc1OC (single isomer, unassigned) [Example 139, 4-(4-(difluoromethyl)-5-(3-ethoxy-4-methoxyphenyl)pyridin-3-yl)-1,2-oxaborolan-2-ol]				0.25 nM	788 nM	0.4 nM	0.78 nM
CCCOc1cc(-c2nc(C3COB(O)C3)ccc2F)ccc1OC (stereo not shown) [Example 135, 4-(5-fluoro-6-(4-methoxy-3-propoxyphenyl)pyridin-2-yl)-1,2-oxaborolan-2-ol]	668 nM	7.24 nM	15.3 nM	10.3 nM			
COc1ccc(-c2cccc(C3COB(O)C3)c2)cc1OCCF (stereo not shown) [Example 63, 4-(3′-(2-fluoroethoxy)-4′-methoxy-[1,1′-biphenyl]-3-yl)-1,2-oxaborolan-2-ol]	312 nM	2.75 nM	57.9 nM	1.62 nM			

The next lines start with the values.

IC50 (IL-13; Homo sapiens, PBMC)	IC50 (IFNγ; Homo sapiens, PBMC)	IC50 (IL-4; Homo sapiens, PBMC)	IC50 [1]	IC50 (IL-13)	IC50 (IFNγ)	IC50 (IL-4)	SMILES
2390 nM	2.4 nM	17.6 nM	1.92 nM				COc1ccc(-c2cc(C3COB(O)C3)ccn2)cc1OC1CCCC1 (stereo not shown) [Example 210, 4-(2-(3-(cyclopentyloxy)-4-methoxyphenyl)pyridin-4-yl)-1,2-oxaborolan-2-ol]
			0.97 nM	166 nM	4.89 nM	5.98 nM	CCOc1cc(-c2cncc(C3COB(O)C3)c2)cc(Cl)c1OC (single isomer, unassigned) [Example 13, 4-(5-(3-chloro-5-ethoxy-4-methoxyphenyl)pyridin-3-yl)-1,2-oxaborolan-2-ol]
444 nM	0.44 nM	0.9 nM	1.24 nM				CCCOc1cc(-c2cncc(C3COB(O)C3)c2C)ccc1OC (stereo not shown) [Example 84, 4-(5-(4-methoxy-3-propoxyphenyl)-4-methylpyridin-3-yl)-1,2-oxaborolan-2-ol]
1800 nM	53.5 nM	390 nM	10.3 nM				COc1ccc(-c2cc(C)cc(C3COB(O)C3)c2)cc1OC (stereo not shown) [Example 207, 4-(3′,4′-dimethoxy-5-methyl-[1,1′-biphenyl]-3-yl)-1,2-oxaborolan-2-ol]
			0.63 nM	1530 nM	2.16 nM	73.1 nM	COc1ccc(-c2cncc(C3COB(O)C3)c2)cc1OC1CC1 (single isomer, unassigned; enantiomer 1) [Example 193, 4-(5-(3-cyclopropoxy-4-methoxyphenyl)pyridin-3-yl)-1,2-oxaborolan-2-ol, enantiomer 1]
			0.22 nM	1800 nM	1.98 nM	4.06 nM	CCCOc1nc(-c2cncc(C3COB(O)C3)c2)c(F)cc1OC (single isomer, unassigned; enantiomer 2) [Example 208, (+) 4-(3-fluoro-5-methoxy-6-propoxy-[2,3′-bipyridin]-5′-yl)-1,2-oxaborolan-2-ol, enantiomer 2]
2320 nM	9.17 nM	67.8 nM	2.4 nM				CCCOc1cc(-c2cncc(C3=CB(O)OC3)c2)ccc1OC [Example 25, 4-(5-(4-methoxy-3-propoxyphenyl)pyridin-3-yl)-1,2-oxaborol-2(5H)-ol]
